Measurements taken from patent US7262218B2, “Forms of pravastatin sodium” (Teva Gyogyszergyar Zartkoruen Mukodo Reszvenytarsasag, priority 1999, dated 2007).
Values belong to the compound of their own block, whether it stands above or below them.

Legend:
[1] = test system: serum cholesterol levels; settings: human subjects with normal hepatic function and moderate body weight; daily dosages of 10 mg or more; cited from earlier work
[2] = Solid-form stability on exposure at 100% relative humidity (X-ray diffraction); assay type: physicochemical; settings: one week
Text: The water uptake at 80% relative humidity after 1 week was up to about 15%. After exposure at 100% relative humidity, all the forms of pravastatin sodium transform to Form C with about […].
Pravastatin sodium was exposed at 100% relative humidity for one week.

[3] = Solid-form stability on drying under vacuum (X-ray diffraction); assay type: physicochemical
Procedure: Most of these forms have a jelly appearance. By drying these samples at 60° C., vacuum overnight, the powdered Form D is obtained.
Pravastatin sodium (7 g) was dissolved in deionized water (13 ml) and diluted with acetone (14.3 ml). The resulting solution was stirred over charcoal (0.07 g.) to decolorize. The charcoal was removed by filtration and rinsed with a 10:1 mixture of acetone:water (15.7 ml). The combined pravastatin sodium solution and rinsate was then diluted with acetone (42.8 ml) and cooled to −10° C. At the reduced temperature, more acetone (143 ml) was slowly added over one half hour. The solution was then maintained at −10° C. for three hours during which time pravastatin sodium crystallized. The crystals were then isolated by filtration, washed with 1% water in acetone that had been pre-cooled to −10° C. (28 ml) and then again with anhydrous acetone (28 ml). The crystals were then dried under vacuum at 50° C. […]
Pravastatin crystals were filtered and washed with 160 L acetone containing 2% water and cooled to between 2-5° C. Then the wet cake was washed once more with 160 L of pure acetone. The product was dried under vacuum by gradual heating to 60° C. The crystals were identified by X-ray diffraction as Form L. The water content was 16.8% and the acetone content was 0%. After prolonged drying the water content was reduced to 10.7%. A mixture of Form L and D was identified.

[4] = Solid-form stability on storage at 40-80% relative humidity for two weeks (X-ray diffraction); assay type: physicochemical; settings: two weeks at relative humidity of between 40-80%
Procedure: Pravastatin sodium Form G may be prepared by storing pravastatin sodium Form F for 2 weeks at a relative humidity of about 40 to about 80%. […] The resulting solid was analyzed by X-ray diffraction without further treatment.

SMILES: CC[C@H](C)C(=O)O[C@H]1C[C@H](O)C=C2C=C[C@H](C)C(CC[C@@H](O)C[C@@H](O)CC(=O)O)[C@H]21 (relative stereo) [Pravastatin sodium, [1S-[1α(β*,δ*)2α,6α,8β(R*),8aα]]-1,2,6,7,8,8a-hexahydro-β,δ,6-trihydroxy-2-methyl-8-(2-methyl-1-oxobutoxy)-1-naphthalene-heptanoic acid]
- effect on serum cholesterol levels [1]: reduction in serum cholesterol levels
- crystal form after exposure at 100% relative humidity [2]: found to be Form C

- crystal form after drying under vacuum overnight [3]: converted to Form D
SMILES: CC[C@H](C)C(=O)O[C@H]1C[C@H](O)C=C2C=C[C@H](C)[C@H](CC[C@@H](O)C[C@@H](O)CC(=O)O)[C@H]21 [Form H, pravastatin sodium]

- crystal form after storage at humidity [4]: Form G is obtained
SMILES: CC[C@H](C)C(=O)O[C@H]1C[C@H](O)C=C2C=C[C@H](C)[C@H](CC[C@@H](O)C[C@@H](O)CC(=O)O)[C@H]21 [Form F, pravastatin sodium]

- crystal form after drying under vacuum overnight [3]: transformed to Form D
SMILES: CC[C@H](C)C(=O)O[C@H]1C[C@H](O)C=C2C=C[C@H](C)[C@H](CC[C@@H](O)C[C@@H](O)CC(=O)O)[C@H]21 [Form I, pravastatin sodium]

- crystal form after drying under vacuum at 50° C. ([3]; dried under vacuum at 50° C. (Example 6)): after drying the crystals were Form D
- crystal form after further drying under vacuum ([3]; vacuum, gradual heating to 60° C., further drying to 2.5% water content (Example 23)): transformed to pure Form D
SMILES: CC[C@H](C)C(=O)O[C@H]1C[C@H](O)C=C2C=C[C@H](C)C(CC[C@@H](O)C[C@@H](O)CC(=O)O)[C@H]21 (some centres unmarked) [Form L, pravastatin sodium]

- crystal form after drying under vacuum overnight [3]: transformed to Form D
SMILES: CC[C@H](C)C(=O)O[C@H]1C[C@H](O)C=C2C=C[C@H](C)[C@H](CC[C@@H](O)C[C@@H](O)CC(=O)O)[C@H]21 [Form J, pravastatin sodium]
